From ChEMBL document CHEMBL1152711, “Synthesis and SAR of potent LXR agonists containing an indole pharmacophore” (Bioorg Med Chem Lett, 2009) come the findings set out here.

As a reminder, the EC50 is the concentration that produces a half-maximal response. For orientation: half-life means the time needed for the level to fall by half in the phase considered. The Cmax is the highest concentration seen after dosing. As usually defined, the bioavailability is the share of a dose that reaches the circulation, judged against a reference dose that is usually intravenous.

The structures appear in SMILES notation.

Data set [1] has as its target T1, Oxysterols receptor LXR-alpha (Homo sapiens) (UniProt Q13133).
T1 sequence (whole entry): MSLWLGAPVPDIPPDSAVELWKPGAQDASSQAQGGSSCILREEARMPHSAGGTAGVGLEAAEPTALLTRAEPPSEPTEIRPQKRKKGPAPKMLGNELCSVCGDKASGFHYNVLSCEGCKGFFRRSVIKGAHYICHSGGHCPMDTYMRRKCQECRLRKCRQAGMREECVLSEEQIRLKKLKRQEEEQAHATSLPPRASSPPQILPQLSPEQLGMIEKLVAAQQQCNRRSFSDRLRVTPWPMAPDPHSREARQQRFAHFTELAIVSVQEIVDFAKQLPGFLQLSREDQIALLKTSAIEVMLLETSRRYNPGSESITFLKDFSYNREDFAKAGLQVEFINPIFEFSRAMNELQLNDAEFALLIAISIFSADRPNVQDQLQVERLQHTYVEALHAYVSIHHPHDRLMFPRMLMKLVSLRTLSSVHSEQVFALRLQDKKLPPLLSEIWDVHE
In words: Agonist activity at LXRalpha by FRET assay relative to GW-3965A. It counts as functional.

The target of data set [2] is T2, Oxysterols receptor LXR-alpha (Homo sapiens, UniProt Q13133).
T2 sequence (Q13133 whole entry): T1 sequence (whole entry)
Briefly: Agonist activity at LXRalpha by FRET assay. The data set is classed as functional.

The target of data set [3] is T3, Oxysterols receptor LXR-beta (Homo sapiens, UniProt P55055).
T3 sequence (P55055 whole entry): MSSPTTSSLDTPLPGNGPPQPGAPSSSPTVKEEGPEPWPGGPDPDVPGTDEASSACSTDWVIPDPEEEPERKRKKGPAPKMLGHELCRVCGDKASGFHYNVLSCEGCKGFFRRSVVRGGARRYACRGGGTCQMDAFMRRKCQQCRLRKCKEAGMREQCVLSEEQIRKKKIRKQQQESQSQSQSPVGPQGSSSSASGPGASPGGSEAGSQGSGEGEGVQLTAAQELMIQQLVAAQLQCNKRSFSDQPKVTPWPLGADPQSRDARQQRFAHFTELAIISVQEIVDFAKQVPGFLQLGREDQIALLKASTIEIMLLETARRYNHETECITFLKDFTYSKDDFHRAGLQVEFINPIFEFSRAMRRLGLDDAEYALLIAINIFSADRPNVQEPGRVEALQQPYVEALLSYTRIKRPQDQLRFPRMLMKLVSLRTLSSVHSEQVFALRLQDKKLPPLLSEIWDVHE
In words: Agonist activity at LXRbeta by FRET assay. It counts as functional.

The target of data set [4] is T4, Oxysterols receptor LXR-beta (Homo sapiens) (UniProt P55055).
T4 sequence (whole entry): T3 sequence (P55055 whole entry)
In words: Agonist activity at LXRbeta by FRET assay relative to GW-3965A. It counts as functional. Also on record: concentration or dose not given beside the values.

The species named for a further data set is Mus musculus. In words: Increase in ABCA1 expression in mouse macrophages by cholesterol efflux assay.
The nature of data set [5]: Plasma clearance in Sprague-Dawley rat at 1.1 mg/kg, iv or 2.1 mg/kg, po. The data set is classed as ADME, organism-based.
Data set [6] is described as follows: Volume of distribution at steady state in Sprague-Dawley rat at 1.1 mg/kg, iv or 2.1 mg/kg, po. The data set is classed as ADME, organism-based. The following applies: in vivo, read-out: Vdss.
The nature of data set [7]: Half life in Sprague-Dawley rat at 1.1 mg/kg, iv. Also on record: dose 1.1 mg/kg, route intravenous. It counts as ADME, organism-based. The following applies: in vivo.
Data set [8] is described as follows: Cmax in Sprague-Dawley rat at 2.1 mg/kg, po. Also on record: dose 2.1 mg/kg, route oral. It counts as ADME, organism-based. Particulars: in vivo.
The nature of data set [9]: Half life in Sprague-Dawley rat at 2.1 mg/kg, po. It counts as ADME, organism-based. More on the design: dose 2.1 mg/kg, route oral. The following applies: in vivo.
Data set [10] can be described thus: Oral bioavailability in Sprague-Dawley rat at 2.1 mg/kg. It counts as ADME, organism-based. Particulars: in vivo.

Consider `CS(=O)(=O)n1ccc2c(OCCCN(Cc3cccc(C(F)(F)F)c3Cl)CC(c3ccccc3)c3ccccc3)cccc21`, for which the values for the Activity in data set [1] and in [4] were 50% and 72%, respectively. The concentration for a half-maximal effect (EC50) was 20 nM in data set [2] and 7 nM in data set [3].
The corresponding values for `Cn1ccc2c(OCCCN(Cc3cccc(C(F)(F)F)c3Cl)CC(c3ccccc3)c3ccccc3)cccc21` are 57%, 86%, 39 nM and 12 nM.
As for `FC(F)(F)c1cccc(CN(CCCOc2cccc3[nH]ccc23)CC(c2ccccc2)c2ccccc2)c1Cl`, the figures for the Activity in data set [1] and in data set [4] were 90% and 104%, respectively. Also, the EC50 in data set [2] came out at 60 nM; in data set [3], 15 nM; in the data set filed under Mus musculus, 5 nM.
With `COC(=O)Cc1c[nH]c2ccc(OCCCN(Cc3cccc(C(F)(F)F)c3Cl)CC(c3ccccc3)c3ccccc3)cc12`, the Activity in data set [1] was 19%; in data set [4], 36%. Further, the figures for the half-maximal effective concentration (EC50) in data set [2] and in data set [3] were 630 nM and 288 nM, respectively.
On the same counts, the results for `FC(F)(F)c1cccc(CN(CCCOc2ccc3[nH]ccc3c2)CC(c2ccccc2)c2ccccc2)c1Cl` are 36%, 78%, 226 nM and 23 nM.
As for `Cc1cc(C)c2c(OCCCN(Cc3cccc(C(F)(F)F)c3Cl)CC(c3ccccc3)c3ccccc3)n[nH]c2n1`, the EC50 is above 3000 nM in data set [2] and 510 nM in data set [3]. For the same molecule, the Activity in data set [4] was determined as 25%.
On to `Cc1cc(OCCCN(Cc2cccc(C(F)(F)F)c2Cl)CC(c2ccccc2)c2ccccc2)n2ncnc2n1`, for which the Activity turned out to be 25% in [1] and 33% in data set [4]. Besides, the figures for the EC50 in [2] and in data set [3] were 790 nM and 560 nM, respectively.
The corresponding values for `COC(=O)c1cc(OCCCN(Cc2cccc(C(F)(F)F)c2Cl)CC(c2ccccc2)c2ccccc2)no1` are 65%, 68%, 63 nM and 26 nM.
Take `O=C(O)Cc1cccc(OCCCN(Cc2cccc(C(F)(F)F)c2Cl)CC(c2ccccc2)c2ccccc2)c1`: the concentration giving a half-maximal response (EC50) in [3] worked out at 25 nM; in the data set filed under Mus musculus, 50 nM.
Consider `Cc1cc(OCCCN(Cc2cccc(C(F)(F)F)c2Cl)CC(c2ccccc2)c2ccccc2)n[nH]1`, for which the Activity was 25% in data set [1] and 30% in data set [4]. The EC50 in data set [2] was determined as 23 nM; in data set [3], 15 nM.
For the molecule `O=C(O)Cn1ccc2c(OCCCN(Cc3cccc(C(F)(F)F)c3Cl)CC(c3ccccc3)c3ccccc3)cccc21`, the results for the Activity in data set [1] and in data set [4] were 132% and 105%, respectively. Further, the results for the concentration giving a half-maximal response (EC50) (in [2]; in [3]; in the data set listed under Mus musculus) were 14 nM, 4 nM and 15 nM, respectively. The molecule further came in with a clearance in data set [5] of 14.6 mL/min/kg. Besides, in [6], the Vd was 1.15 L/kg. The half-life is 1.35 h in data set [7] and 2.9 h in data set [9]. This molecule also registered a maximum concentration (Cmax) in data set [8] of 1810 ng/mL. This molecule also registered a bioavailability in data set [10] of 45.4%.
Take `FC(F)(F)c1cccc(CN(CCCOc2n[nH]c3ccccc23)CC(c2ccccc2)c2ccccc2)c1Cl`: the Activity was 17% in data set [1] and 44% in data set [4]. Further, the results for the half-maximal effective concentration (EC50) in data set [2] and in [3] were 110 nM and 60 nM, respectively.
